Drawing on patent publication US5861395A, “Compounds useful for inhibition of farnesyl proteins transferase” (Schering Corporation, priority 1997, dated 1999), this text covers IC50 for ten molecules.

Assay [1] deals with farnesyl protein transferase. Description: FPT IC50 (inhibition of farnesyl protein transferase, in vitro enzyme assay). It is filed as biochemical. From the text: In Table 2 "Ex. No." stands for "Example Number". In Table 2, FPT IC50 results are less indicated otherwise.
In assay [2] the target is farnesyl protein transferase (K-ras) (Homo sapiens, UniProt P49354+P49356). Description: FPT IC50 (K-ras), in vitro enzyme assay. It is filed as biochemical. How it is done:
(§1) FPT IC50 (inhibition of farnesyl protein transferase, in vitro enzyme assay), GGPT IC50 (inhibition of geranylgeranyl protein transferase, in vitro enzyme assay) and COS Cell IC50 (Cell-Based Assay) were determined following the assay procedures described in WO 95/10516, published Apr. 20, 1995. Cell Mat Assay, and anti-tumor activity (in vivo anti-tumor studies) could be determined by the assay procedures described in WO 95/10516. The disclosure of WO 95/10516 is incorporated herein by reference thereto.

Assay [3] has as its system COS Cell. Description: COS Cell IC50 (Cell-Based Assay). How it is done: as §1
Assay [4] relates to Human tumor cells. Description: Soft Agar Assay (anchorage-independent growth). The format is cell-based. The note with it: Homo sapiens, Table 4; colonies after 10-16 days at 37° C. The procedure: Soft Agar Assay: Anchorage-independent growth is a characteristic of tumorigenic cell lines. Human tumor cells are suspended in growth medium containing 0.3% agarose and an indicated concentration of a farnesyl transferase inhibitor. The solution is overlayed onto growth medium solidified with 0.6% agarose containing the same concentration of farnesyl transferase inhibitor as the top layer. After the top layer is solidified, plates are incubated for 10-16 days at 37° C. under 5% CO2 to allow colony outgrowth. […] Colonies can be counted and the IC50 's can be determined.

Assay [5] has as its target farnesyl protein transferase (H-ras) (Homo sapiens, UniProt P49354+P49356). Put plainly: FPT IC50 (H-ras), in vitro enzyme assay. The format is biochemical. How it is done:
as §1

The target of assay [6] is T1, geranylgeranyl protein transferase (Rattus norvegicus, UniProt P53610+Q04631).
T1 construct: from tissue; host or cells: rat brain (own knowledge of the cited WO 95/10516)
Description: GGPT IC50 (inhibition of geranylgeranyl protein transferase, in vitro enzyme assay). The format is biochemical. How it is done:
as §1

Each structure is given as a SMILES string. pIC50: −log10 of the molar value. “And” between values parts separate entries of the source, which are not always exact repeats. Identical values can stand only once. Like-named read-outs stand apart in the source and are kept apart here.

`N=C(Oc1ccccc1)N1CCC(CC(=O)N2CCC([C@H]3c4ncc(Br)cc4CCc4cc(Cl)cc(Br)c43)CC2)CC1` [Example 25]: the pIC50 in assay [1] (Table 2) is 8.06; in assay [2], 7.34; in assay [3] (Table 2), 7.62; in assay [3] (Table 4), 7.62; in assay [4], 6.70.
`N#CN1CCC(CC(=O)N2CCC(C3c4ccc(Cl)c(Br)c4CCc4cc(Br)cnc43)CC2)CC1` (centres unmarked) [Example 30]: the negative logarithm of the IC50 (pIC50) was 8.15 in assay [1] (Table 2), 7.41 in assay [2] (Table 2) and 6.34 in assay [3] (Table 2).
With `N=C(Oc1ccccc1)N1CCC(CC(=O)N2CCN(C3c4ccc(Cl)cc4CCc4cc(Br)cnc43)CC2)CC1` (centres unmarked) [Example 3, PHENYL 4-[2-[4-(3-BROMO-8-CHLORO-6,11-DIHYDRO-5 H-BENZO[5,6]CYCLOHEPTA1,2-b]PYRIDIN-11-YL)-1-PIPERAZINYL]-2-OXOETHYL-1-PIPERIDINECARBOXIMIDATE], the pIC50 in assay [5] was 6.54.
In the case of `CC(=O)OC[C@H]1O[C@@H](NC(=S)N2CCC(CC(=O)N3CCC([C@H]4c5ncc(Br)cc5CCc5cc(Cl)cc(Br)c54)CC3)CC2)[C@H](OC(C)=O)[C@@H](OC(C)=O)[C@@H]1OC(C)=O` [Compound 4.0-B], the negative logarithm of the IC50 (pIC50) in assay [5] was 7.92; in assay [2] it was 7.54; in assay [3] (Table 4), 6.00.
`N=C(NCc1cccnc1)N1CCC(CC(=O)N2CCC(C3c4ccc(Cl)c(Br)c4CCc4cc(Br)cnc43)CC2)CC1` (centres unmarked) [Example 29]: the pIC50 in assay [1] (Table 2) was 7.96; in assay [2] (Table 2), 6.11; in assay [6], 5.12; in assay [3] (Table 2) it was below 6.00.
On to `CC(=O)O[C@H]1CC[C@@H](C(=O)N2CCC(CC(=O)N3CCC([C@H]4c5ncc(Br)cc5CCc5cc(Cl)cc(Br)c54)CC3)CC2)CC1` [Compound 66.0-B], for which the results for the negative-log IC50 (pIC50) in assay [1] (Table 3), in assay [3] (Table 4) and in assay [4] were 8.14, 8.00 and 6.36, respectively.
Take `N#CN1CCC(CC(=O)N2CCC([C@H]3c4ncc(Br)cc4CCc4cc(Cl)cc(Br)c43)CC2)CC1` [Compound 98.0-B]: the pIC50 in assay [5] is 8.64 and 8.62; in assay [2], 7.77; in assay [3] (Table 4) it was 7.92; in assay [4], 7.00.
As to `O=C(CC1CCN(C(=O)N2CCOCC2)CC1)N1CCC([C@H]2c3ncc(Br)cc3CCc3cc(Cl)cc(Br)c32)CC1` [Compound 100.0-B], the figures for the pIC50 in assay [5], in assay [3] (Table 4) and in assay [4] were 8.26, above 8.00 and 6.42, respectively.
With `O=CN1CCC(CC(=O)N2CCC([C@H]3c4ncc(Br)cc4CCc4cc(Cl)cc(Br)c43)CC2)CC1` [Compound 5.0-B], the values for the negative logarithm of the IC50 (pIC50) in assay [1] (Table 3), in assay [2] and in assay [3] (Table 4) were 8.43, 7.80 and 8.10, respectively.
Regarding `NC(=O)Cn1cccc1C(=O)N1CCC(CC(=O)N2CCC([C@H]3c4ncc(Br)cc4CCc4cc(Cl)cc(Br)c43)CC2)CC1` [Compound 42.0-B], the values for the pIC50 in assay [1] (Table 3), in assay [3] (Table 4) and in assay [4] were 8.49, 7.57 and 6.51, respectively.
